Laboratory results as given in patent US20230331707A1, “PROGRAMMED CELL NECROSIS INHIBITOR, PREPARATION METHOD THEREFOR, AND USE THEREOF” (Shanghai Institute of Organic Chemistry, Chinese Academy of …, priority 2020, published 2023).
Like-named read-outs stand apart in the source and are kept apart here.

How the values were obtained:
L929 cells = test: Inhibition of TNF-induced programmed necrosis of L929 cells (Cell Titer-Glo viability); format: cell-based, mouse; settings: Mus musculus, L929, L929 cells
Description: (§1) The adopted biological assay protocol was: the effect of compounds on programmed necroptosis of TNF-induced FADD (Fas-Associated Death Domain) deficient Jurkat cells and L929 cells.
(§2) In order to verify the inhibitory effect of the compounds of the present invention on programmed cell necrosis at the cellular level, cell types that is closely related to the RIP1 pathway, namely FADD deficient Jurkat cells (human peripheral blood leukemia T cell strain) and L929 cells, were selected. Two different stimulation methods were used: tumor necrosis factor (TNFα) was used alone, or TNFα was used in combination with mitochondria-derived cysteine aspartate activator (SMAC) SM164. Cells viability was calculated by detecting chemiluminescence values, thereby obtaining the biological activity of the compound on the inhibition of programmed cell necrosis.
(§3) Methods: FADD deficient Jurkat cells: FADD deficient Jurkat cells (human peripheral blood leukemia T cell line) were cultured in vitro. After growing to the logarithmic growth phase, the cells were collected, centrifuged at 1000 rpm for 5 min, the supernatant was discarded, and the cell concentration was adjusted to 2.5×10^5/mL. Cells were seeded into 384-well plates, 40 μl per well. 5 μL of SM164 (50 nM) diluted in cell culture medium and 5 μL of each compound were added to the corresponding wells. After pretreatment at 37° C. for 1 h, 5 μL of TNFα (50 ng/mL) diluted in cell culture medium was added to each well of the stimulation group, and 5 μL of the culture medium was added to the control group. The plate was cultured in a cell incubator (37° C., 5% CO2) for 14 h, and […] of Cell Titer-Glo solution was added to each well, then incubated for 30 min at room temperature, and intracellular ATP level was measured by detecting luminescence. The unstimulated DMSO control wells were taken as 100% cell viability. L929 cells: The L929 cells (mouse fibroblasts) were cultured in vitro, digested and diluted to 6.25×10^4/ml, and the cells were seeded into 384-well plates, 40 μl per well. The plate was placed in a cell incubator (37° C., 5% CO2) for 12 hours. 5 μL of SM164 (500 nM) diluted in cell culture medium and 5 μL of each compound were added to the corresponding wells. After pretreatment at 37° C. for 1 h, 5 μL of TNFα (500 ng/mL) diluted in cell culture medium was added to each well of the stimulation group, and 5 μL of the culture medium was added to the control group. After the plate was cultured for 14 h in a cell incubator (37° C., 5% CO2), 15 μl of Cell Titer-Glo solution was added to each well. The plate was incubated at room temperature for 30 min, and intracellular ATP level was measured by detecting luminescence. The unstimulated DMSO control wells were taken as 100% cell viability. EC50 values of the compounds were calculated using Prism Graphpad statistical software.

FADD−/− Jurkat cells = test: Inhibition of TNF-induced programmed necrosis of FADD deficient Jurkat cells (Cell Titer-Glo viability); format: cell-based; settings: for activity of inhibition of programmed necrosis compared with GSK2982772: human FADD-deficient Jurkat cells, TNFα alone or in combination with SM164
Description: as §1, §2, §3

[1] = stimulated with TNFα + SM164, read-out: EC50 (μM) L929 cells (mouse) TNFα + SM164
[2] = stimulated with TNFα alone, read-out: EC50 (μM) L929 cells (mouse) TNFα
[3] = FADD−/− Jurkat cells, stimulated with TNFα + SM164, read-out: EC50 (μM) FADD−/− Jurkat cells (human) TNFα + SM164
[4] = FADD−/− Jurkat cells, stimulated with TNFα alone, read-out: EC50 (μM) FADD−/− Jurkat cells (human) TNFα
[5] = Homo sapiens, Jurkat, 14 h, FADD−/− Jurkat cells, stimulated with TNFα + SM164, read-out: EC50 (μM) FADD−/− Jurkat cells (human) TNFα + SM164
[6] = Homo sapiens, Jurkat, FADD−/− Jurkat cells, stimulated with TNFα alone, read-out: EC50 (μM) FADD−/− Jurkat cells (human) TNFα

| SMILES | EC50 (L929 cells; [1]) [nM] | EC50 (L929 cells; [2]) [nM] | EC50 (FADD−/− Jurkat cells; [3]) [nM] | EC50 (FADD−/− Jurkat cells; [4]) [nM] | EC50 (FADD−/− Jurkat cells; [5]) [nM] | EC50 (FADD−/− Jurkat cells; [6]) [nM] | EC50 (FADD−/− Jurkat cells; Homo sapiens, Jurkat, 14 h, read-out: EC50 (μM) FADD−/− Jurkat cells (human) TNFα + SM164) [nM] | EC50 (FADD−/− Jurkat cells; Homo sapiens, Jurkat, read-out: EC50 (μM) FADD−/− Jurkat cells (human) TNFα) [nM] | activity of inhibition of programmed necrosis compared with GSK2982772 (FADD−/− Jurkat cells) |
| --- | --- | --- | --- | --- | --- | --- | --- | --- | --- |
| COc1ccc2c(c1)ncn2-c1ccc(CNC(=O)c2cnn(C)c2Cc2ccccc2)cc1 [QY-11-102A] | 0.0793 | 0.00513 | 0.0649 | 0.00168 | – | – | – | – | – |
| CNC(=O)c1ccc2c(c1)ncn2-c1ccc(CC(=O)NC(C)(C)C(=O)N2CCCC2c2ccc(C)cc2)cc1 (stereo not shown) [QY-8-42] | > 10000 | > 10000 | – | – | > 10000 | > 10000 | – | – | – |
| COc1ccc2c(c1)ncn2-c1ccc(CNC(=O)c2cnn(C)c2Cc2ccccc2)cc1 [QY-12-4] | – | – | 128 | 17.6 | – | – | – | – | – |
| Nc1ncnc2c1ncn2-c1ccc(CNC(=O)Cc2cccc(OC(F)(F)F)c2)cc1 [QY-9-70] | 6300 | 350 | – | – | > 10000 | 2960 | – | – | – |
| CC(NC(=O)c1cnn(C)c1Cc1ccccc1)c1ccc(-n2cnc3c(N)ncnc32)cc1 (stereo not shown) [QY-12-31] | 0.569 | 0.356 | – | – | 0.254 | 0.0967 | – | – | – |
| CNC(=O)c1ccc2c(c1)ncn2-c1ccc(CC(=O)N(O)Cc2ccccc2)cc1 [QY-5-62, 1-(4-(2-(benzyl(hydroxy)amino)-2-oxoethyl)phenyl)-N-methyl-1H-benzo[d]imidazol-5-formamide] | > 10000 | 3800 | – | – | – | – | 98 | 4.98 | – |
| C[C@@H](c1ccc(-n2cnc3c(N)ncnc32)cc1)N1CCc2nn(C)c(Cc3ccccc3)c2C1=O [QY-13-33] | 3.02 | 1.32 | – | – | 2.85 | 0.296 | – | – | stronger activity |
| C[C@H](NC(=O)c1c(Cl)nn(C)c1Cc1ccccc1)c1ccc(-n2cnc3c(N)ncnc32)cc1 [QY-13-29] | 0.462 | 0.317 | – | – | 0.318 | 0.0916 | – | – | – |
| CNC(=O)c1ccc2c(c1)ncn2-c1ccc(NC(=O)c2nocc2Cc2ccccc2)cc1 [QY-6-15] | > 10000 | > 10000 | – | – | > 10000 | 1370 | – | – | – |
| Cn1nnc(C(=O)NCc2ccc(-n3cnc4cc(C#N)ccc43)cc2)c1Cc1ccccc1 [QY-15-59] | 0.001 | 0.001 | – | – | – | 0.00767 | – | – | stronger activity |
| Nc1ncnc2c1ccn2-c1ccc(CNC(=O)c2cc(Cc3ccccc3)on2)cc1 [QY-8-48] | > 10000 | > 10000 | – | – | > 10000 | 972 | – | – | – |
| CNC(=O)c1ccc2c(ccn2-c2ccc(CNC(=O)c3ncc(Cc4ccccc4)o3)cc2)c1 [XHJ-2-88] | 3980 | 831 | – | – | 380 | 70.1 | – | – | – |
| CNC(=O)c1ccc2c(ccn2-c2ccc(CNC(=O)c3cc(Cc4ccccc4)n(C)n3)cc2)c1 [ZSQ-15-68] | 1800 | 610 | – | – | 670 | 115 | – | – | – |
| N#Cc1ccc(C(=O)NCc2ccc(-n3cnc4c(N)ncnc43)cc2)n1Cc1ccccc1 [QY-12-51] | 3770 | 875 | – | – | 1860 | 214 | – | – | – |
| Nc1ncnc2c1ncn2-c1ccc(CNC(=O)c2n[nH]c3ncc(C(F)(F)C(F)(F)F)cc23)cc1 [QY-9-77, N-(4-(6-amino-9H-purin-9-yl)benzyl)-5-(perfluoroethyl)-1H-pyrazolo[3,4-b]pyridine-3-carboxamide] | 5000 | 344 | – | – | 171 | 9.04 | – | – | – |
| Nc1ncnc2c1ncn2-c1ccc(CNC(=O)c2cncn2Cc2ccccc2)cc1 [ZSQ-21-14] | – | – | – | – | > 10000 | 290 | – | – | – |
